pEC50: −log10 of the molar value. The source made the active and inactive calls. The rule behind the calls is not given here.
Target: Bcl-2-related protein A1 (Homo sapiens) (UniProt Q16548)
Assay: Bfl-1/Bim complex disruptors – biochemical, multiplexed, bead-based flow cytometry, dose response (AID 1320); for percent span (inhibition): test concentration not given here
Settings: Bim peptide-Bfl-1 binding, fluorescence; for percent span (inhibition): active compounds read high

Sequence of Bcl-2-related protein A1 (Homo sapiens) (Q16548 whole entry, looked up): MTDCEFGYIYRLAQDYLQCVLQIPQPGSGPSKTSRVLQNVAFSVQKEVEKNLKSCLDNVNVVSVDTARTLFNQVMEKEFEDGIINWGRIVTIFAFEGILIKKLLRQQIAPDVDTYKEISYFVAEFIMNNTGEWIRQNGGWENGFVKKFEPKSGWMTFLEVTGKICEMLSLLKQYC

| Compound | percent span (inhibition) | pEC50 |
| --- | --- | --- |
| COc1ccc2cc(CN(CCc3ccccc3)Cc3nnnn3CC3CCCO3)c(=O)[nH]c2c1 (stereo not given) | inactive |  |
| CCN(CC)c1ccc(NC(=O)c2ccccc2)cc1S(=O)(=O)Nc1ccccc1OC | inactive |  |
| COc1ccc(C2CN(C)CC2C(=O)c2ccc(F)cc2)cc1Cl (stereo not given) | inactive |  |
| CCOC(=O)c1cccc(Nc2ncnc3ccccc23)c1 | inactive |  |
| CCOCCOc1nc2c(c(=O)n(C)c(=O)n2C)n1CCc1ccccc1 | inactive |  |
| COc1ccc(NC(=O)c2cc(-c3ccc(C)o3)nc3ccccc23)cc1OC | inactive |  |
| O=[N+]([O-])c1ccc2[nH]nc(-c3ccccc3)c2c1 | inactive |  |
| Cc1cc(C)cc(NS(=O)(=O)c2ccc3c(c2)c(=O)n(C)c(=O)n3C)c1 | inactive |  |
| OC(CNC1CCCCC1)COCCOc1ccc(Br)cc1 (stereo not given) | inactive |  |
| CN(C)CCNC(=O)C(=O)C1C(=O)Nc2ccccc21 (stereo not given) | inactive |  |
| CN(C)c1cccc(NC(=O)C2(C)CC2(Cl)Cl)c1 (stereo not given) | inactive |  |
| CCOC(=O)c1sc(NC(=O)c2ccncc2)c(C#N)c1C | inactive |  |
| O=C(c1cnccn1)N1CCN(c2ccccc2F)CC1 | inactive |  |
| C=CCn1c(C)c(C(C)=O)c(N2CCOCC2)nc1=S | inactive |  |
| O=C(C[n+]1ccc(-c2nnc3n2CCC3)cc1)c1ccc(Cl)cc1 | inactive |  |
| O=C(CSc1ccc(-c2ccccc2)nn1)NCc1ccco1 | inactive |  |
| CCC(=O)NC(c1ccc(C)cc1)c1cc([N+](=O)[O-])c2cccnc2c1O (stereo not given) | inactive |  |
| O=C(CCCN1C(=O)c2cccc3cccc(c23)C1=O)N1CCN(c2ccccn2)CC1 | inactive |  |
| COc1ccc(-n2c(SCC(=O)Nc3ccc(C(=O)O)cc3)nnc2-c2cccs2)cc1 | inactive |  |
| COc1ccc(C(=O)NC(=S)N2CCNC(=O)C2)cc1Br | inactive |  |
| COc1ccc(S(=O)(=O)NCCSc2ccc(Cl)cc2)cc1OC | inactive |  |
| COc1cc(/C=C2/NC(=O)N(Cc3ccccc3F)C2=O)cc(OC)c1O | inactive |  |
| Cc1nc2cc(F)ccc2n1C1CCN(C(=O)c2c(F)cccc2F)CC1 | inactive |  |
| Nc1cccc(-c2cn3cccnc3n2)c1 | inactive |  |

| Compound | percent span (inhibition) | pEC50 |
| --- | --- | --- |
| COc1ccc(NC(=O)Cc2c(F)cccc2Cl)c(OC)c1 | inactive |  |
| Cc1cccc(Nc2nc(-c3ccncc3)cs2)c1 | inactive |  |
| COc1ccc(-c2csc(NC(=O)/C(N=Nc3ccccc3)=C(\C)O)n2)cc1 | inactive |  |
| CC(C)CNC(=O)c1cccc(NC(=O)c2ccc(Cl)c([N+](=O)[O-])c2)c1 | inactive |  |
| Cc1cccn2c(=O)c3cc(C(N)=S)c(=N)n(CCCN4CCOCC4)c3nc12 | inactive |  |
| COc1cc2[nH]c(=S)nc(NCC3CCCO3)c2cc1OC (stereo not given) | inactive |  |
| COC(=O)c1[nH]c2ccccc2c1NC(=O)c1ccccc1[N+](=O)[O-] | inactive |  |
| COc1ccc(CC(=O)Nc2ccc(-c3nc4cc(C)ccc4o3)c(O)c2)cc1OC | inactive |  |
| Fc1ccc(Cn2nnnc2C(c2ccc(Cl)cc2)N2CCSCC2)cc1 (stereo not given) | inactive |  |
| Cc1cc(C)nc(/N=c2/ssnc2Cl)c1 | inactive |  |
| CC(CCc1ccccc1)NC(=O)C1CCN(S(=O)(=O)N2CCCCC2)CC1 (stereo not given) | inactive |  |
| CC(C)c1ccc(C2CC(c3ccc(Br)cc3)=NN2C(N)=S)cc1 (stereo not given) | inactive |  |
| COc1ccc(S(=O)(=O)NCCSc2ccccc2)cc1OC | inactive |  |
| COc1ccc(Cc2c(O)nc(SC)n(C(C)=O)c2=O)cc1 | inactive |  |
| CCn1cc(C=C2C(=O)c3ccccc3C2=O)c2ccccc21 | inactive |  |
| COc1cccc(C(=O)/C=C/Nc2ccc(S(=O)(=O)Nc3onc(C)c3C)cc2)c1 | inactive |  |
| O=C(N/N=C/c1cccnc1)c1cccc(S(=O)(=O)N2CCCC2)c1 | inactive |  |
| Cn1c(=O)c(C(=O)COC(=O)c2cc(-c3ccco3)nc3ccccc23)c(N)n(CC2CC2)c1=O | inactive |  |
| Cc1ccc(NC(=O)CC2S/C(=N/N=C/c3c[nH]c4ccccc34)NC2=O)cc1 (stereo not given) | inactive |  |
| O=C(CSc1ccc2nnc(-c3ccncc3)n2n1)Nc1nccs1 | inactive |  |
| O=C(c1ccccc1NS(=O)(=O)c1ccc(Br)s1)N1CCCC1 | inactive |  |
| Cc1ccc2cc(C)c(Sc3nnnn3-c3ccccc3)nc2c1 | inactive |  |
| O=C1Nc2ccc([N+](=O)[O-])cc2OC1CCN1CCN(Cc2ccc3c(c2)OCO3)CC1 (stereo not given) | inactive |  |
| O=C(Nc1ccncc1)c1cc2ccccc2o1 | inactive |  |

| Compound | percent span (inhibition) | pEC50 |
| --- | --- | --- |
| Cc1ccc(Nc2nc(CSc3nnc(-c4cccnc4)n3-c3ccccc3C)cs2)cc1 | inactive |  |
| Cn1c(N)c(C(=O)COC(=O)c2cc(-c3ccco3)nc3ccccc23)c(=O)n(C)c1=O | inactive |  |
| O=C(C1=NN(c2ccccc2)C2C(=O)N(c3ccccc3)C(=O)C12)c1ccccc1 (stereo not given) |  | 5.87 |
| CCOC(=O)c1nc(Nc2ccc(C(=O)OC)cc2)c2ccccc2n1 | inactive |  |
| O=c1c2c(n3nnnc3n1Cc1ccccc1)-c1ccccc1CC21CCCC1 | inactive |  |
| COc1ccc(Cl)cc1-n1c(C)cc(C=O)c1C | inactive |  |
| c1ccc(Nc2nc(-c3ccncc3)cs2)cc1 | inactive |  |
| CCOc1cc(CNc2ccc(N3CCCCC3)cc2)cc(Br)c1OCC(=O)NC(C)(C)C | inactive |  |
| O=C(N/N=C/c1cccc([N+](=O)[O-])c1)c1cccs1 | inactive |  |
| Cc1cc(N/C(=N/S(=O)(=O)c2cc(F)ccc2F)c2ccccc2)n(-c2ccccc2)n1 | inactive |  |
| O=C(Nc1nnc(SCc2ccccn2)s1)C1CC(=O)N(c2ccccc2)C1 (stereo not given) | inactive |  |
| COc1ccccc1Oc1ccc2c(c1)C(=O)N(c1cccc3ncccc13)C2=O | inactive |  |
| Cc1ccc(NS(=O)(=O)c2cc(NC(=O)c3ccc4c(c3)NC(=O)CS4)ccc2C)c(C)c1 | inactive |  |
| Cc1ccccc1/C=N/Nc1ccnc2cc(Cl)ccc12 | inactive |  |
| CCN(CC)c1ccc(NC(=O)COc2ccccc2C)cc1S(=O)(=O)Nc1ccccc1OC | inactive |  |
| Cc1ccnc(NS(=O)(=O)c2ccc(NC(=O)c3c(-c4ccccc4Cl)noc3C)cc2)n1 | inactive |  |
| CC1=NN(c2ccc(C)cc2)C(=O)/C1=C\c1ccc(Br)s1 | inactive |  |
| O=C(COc1ccccc1Br)NCc1ccccn1 | inactive |  |
| Cc1cc(N2CCN(C)CC2)nc2ccc(NC(=S)N3CCCCC3)cc12 | inactive |  |
| CCN1CCN(c2cc(C)c3cc(NC(=S)N4CCN(c5ccccc5)CC4)ccc3n2)CC1 | inactive |  |
| COc1ccc(-n2c(=O)c3ccccc3c3ccccc3c2=O)c(OC)c1 | inactive |  |
| Cc1ccc(NC2=C(Cl)C(=O)c3ccccc3C2=O)cc1 | inactive |  |

— PubChem BioAssay AID1320 (NMMLSC, 2008)
